According to patent US20250339409A1, “USES OF PAN BET INHIBITORS” (VYNE THERAPEUTICS INC., priority 2021, published 2025):

Assay: Solubility of BETi1 in water (HPLC) and in solvents (visual observation)
Assay type: physicochemical
Settings: sample of 0.04 mg/g (0.004%) in NaCMC/saline

## Cn1cc(-c2cccc(O)c2Oc2ccccc2)c2cc[nH]c2c1=O [BETi1]
  fraction of API in undissolved form: approximately 90%
